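Each compound was tested at five concentrations against cells in 96-well plates for 48 hours. The concentration for full growth arrest is given as TGI.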 Some results are limits rather than exact numbers.

Some test systems named below: CCRF-CEM leukemia; LOX IMVI melanoma; DU-145 prostate; NCI-H460 lung; HT29 colon; NCI-H226 lung; MOLT-4 leukemia; SK-MEL-5 melanoma; MDA-MB-231 breast; SF-539 CNS; OVCAR-8 ovarian; K-562 leukemia; TK-10 renal; SR leukemia; HL-60(TB) leukemia; 786-0 renal; HS 578T breast; A549 NSCLC; HCC-2998 colon; T-47D breast.
Holding throughout (test): NCI anticancer screen, dose series, 48 h

Regarding `Cn1c(=O)oc2cc(C(=S)N3CCC(Cc4ccccc4)CC3)ccc21`, the TGI in the assay on CCRF-CEM leukemia, with LOX IMVI melanoma, with DU-145 prostate, in the assay with NCI-H460 lung, with HT29 colon and in the assay on NCI-H226 lung was greater than 100 µM throughout. Moreover, the TGI in the assay with MOLT-4 leukemia, with SK-MEL-5 melanoma, in the assay with MDA-MB-231 breast, in the assay with SF-539 CNS, in the assay on OVCAR-8 ovarian and in the assay on K-562 leukemia was greater than 100 µM throughout. The TGI in the assay with TK-10 renal, in the assay on SR leukemia, in the assay with HL-60(TB) leukemia, with 786-0 renal and with HS 578T breast was greater than 100 µM throughout.

On to `NCCCCC(N)C(=O)N1CCN(c2nc(N3CCCC3)c3nc(Cl)c(NCc4ccccc4)nc3n2)CC1` (stereo not given), for which the TGI was 37.7 µM in the assay on CCRF-CEM leukemia; 35.9 µM with LOX IMVI melanoma; 33.5 µM with DU-145 prostate; 34.4 µM in the assay on NCI-H460 lung; 38 µM in the assay on HT29 colon; 45.6 µM with NCI-H226 lung. The TGI turned out to be 50.6 µM with MOLT-4 leukemia; 34.1 µM in the assay on SK-MEL-5 melanoma; 34.3 µM in the assay with MDA-MB-231 breast; 37.6 µM in the assay with SF-539 CNS; 37.3 µM in the assay with A549 NSCLC; 31.5 µM in the assay on OVCAR-8 ovarian. Further, the TGI came out at 47.2 µM in the assay on K-562 leukemia; 35.6 µM in the assay on TK-10 renal; 44.9 µM with SR leukemia; 34.7 µM in the assay on HCC-2998 colon; 36.1 µM with HL-60(TB) leukemia; 33.1 µM with 786-0 renal. In addition, the TGI in the assay with HS 578T breast was found to be 47.4 µM.

For the molecule `CCCCCCc1cc2cc(C(=O)Nc3ccccc3F)c(=N)oc2cc1O`, the TGI in the assay on CCRF-CEM leukemia worked out at 21.7 µM; with LOX IMVI melanoma it was 19.4 µM; with DU-145 prostate, 25.2 µM; with NCI-H460 lung it was 97.8 µM; in the assay on HT29 colon it was 62.9 µM; in the assay with MOLT-4 leukemia, 90.5 µM. For the same molecule, the TGI in the assay on SK-MEL-5 melanoma was 12.8 µM; in the assay with SF-539 CNS, 39.3 µM; in the assay with A549 NSCLC, 26.9 µM; in the assay with OVCAR-8 ovarian, 8.34 µM; in the assay with K-562 leukemia, greater than 100 µM; in the assay on T-47D breast, 12.4 µM. The TGI in the assay with SR leukemia turned out to be 50.2 µM; in the assay on HCC-2998 colon, 48.1 µM; in the assay with HL-60(TB) leukemia, 31.9 µM; with 786-0 renal, 24.9 µM; in the assay on HS 578T breast, 63.8 µM.

Consider `CC1=Nc2nc3ccccc3n2C(C)(C)C1`, for which the TGI in the assay with CCRF-CEM leukemia, in the assay with LOX IMVI melanoma, in the assay on NCI-H460 lung, in the assay with HT29 colon, in the assay with NCI-H226 lung and in the assay with MOLT-4 leukemia was greater than 100 µM each time. Also, the TGI with SK-MEL-5 melanoma, in the assay on MDA-MB-231 breast, in the assay with SF-539 CNS, in the assay with A549 NSCLC, with OVCAR-8 ovarian and with K-562 leukemia was greater than 100 µM each time. The TGI in the assay on TK-10 renal, in the assay with T-47D breast, in the assay on SR leukemia, in the assay on 786-0 renal and in the assay with HS 578T breast was greater than 100 µM throughout.

On to `C/C(O)=C(/C=N\C(=S)Nc1ccc(Cl)c(Cl)c1)C(=O)Nc1ccccc1C`, for which the TGI with LOX IMVI melanoma is greater than 100 µM; in the assay with DU-145 prostate, 92 µM; with NCI-H460 lung, greater than 100 µM; with HT29 colon it was 87.1 µM; in the assay with NCI-H226 lung, 88.7 µM; with MOLT-4 leukemia, 54.9 µM. Also, the TGI with SK-MEL-5 melanoma was 44 µM; with MDA-MB-231 breast, greater than 100 µM; with SF-539 CNS it was greater than 100 µM; with A549 NSCLC, greater than 100 µM; with OVCAR-8 ovarian it was 66.3 µM; in the assay with TK-10 renal, greater than 100 µM. Besides, the TGI with T-47D breast was 45.7 µM; in the assay with HCC-2998 colon it was greater than 100 µM; in the assay with HL-60(TB) leukemia, 60.1 µM; in the assay with 786-0 renal it was greater than 100 µM.

Take `COc1cc(COC(=O)N2CCCCC2C(=O)O)c([N+](=O)[O-])cc1OC` (stereo not given): the TGI in the assay with CCRF-CEM leukemia, in the assay on DU-145 prostate, in the assay on NCI-H460 lung, in the assay on HT29 colon, in the assay on NCI-H226 lung and in the assay with MOLT-4 leukemia was greater than 100 µM throughout. For the same molecule, the TGI in the assay with SK-MEL-5 melanoma, in the assay on SF-539 CNS, in the assay on A549 NSCLC, in the assay with OVCAR-8 ovarian, in the assay with K-562 leukemia and in the assay with TK-10 renal was greater than 100 µM in each case. The TGI in the assay on T-47D breast, in the assay with SR leukemia, in the assay with HCC-2998 colon, in the assay on HL-60(TB) leukemia, with 786-0 renal and in the assay with HS 578T breast was greater than 100 µM each time.

`COc1ccc(-c2nc(N(C)C)c3ccccc3n2)cc1`: the TGI in the assay on LOX IMVI melanoma was 28.8 µM; in the assay on NCI-H460 lung, 26.9 µM; in the assay with HT29 colon, 22.7 µM; in the assay with NCI-H226 lung, 21.8 µM; in the assay on MOLT-4 leukemia, 15.8 µM; in the assay on SK-MEL-5 melanoma, 26.2 µM. For the same molecule, the TGI is 96.5 µM in the assay with MDA-MB-231 breast; 42.8 µM in the assay with SF-539 CNS; 46.8 µM in the assay with A549 NSCLC; greater than 100 µM in the assay on OVCAR-8 ovarian; 40.7 µM in the assay on K-562 leukemia; 65.8 µM with TK-10 renal. Moreover, the TGI in the assay on T-47D breast was determined as 49.1 µM; in the assay on SR leukemia it was 29.1 µM; in the assay with HCC-2998 colon, 23.5 µM; in the assay with HL-60(TB) leukemia, 32.2 µM; in the assay on 786-0 renal it was 32.3 µM; in the assay with HS 578T breast, 59.2 µM.

As to `CC(=O)OCc1cccc(O)c1C(=O)CCC=C(C)C`, the TGI with CCRF-CEM leukemia, with LOX IMVI melanoma, with DU-145 prostate, in the assay with NCI-H460 lung, in the assay with HT29 colon and in the assay on NCI-H226 lung was greater than 100 µM in each case. Also, the TGI in the assay on MOLT-4 leukemia, in the assay with SK-MEL-5 melanoma, in the assay with SF-539 CNS, with A549 NSCLC, with K-562 leukemia and with TK-10 renal was greater than 100 µM throughout. Besides, the TGI in the assay with T-47D breast, in the assay with SR leukemia, in the assay on HCC-2998 colon, in the assay with HL-60(TB) leukemia, with 786-0 renal and in the assay on HS 578T breast was greater than 100 µM throughout.

The values above are taken from PubChem BioAssay (NCI).
